From patent US20060115815A1 (priority 2002, published 2006)
Values joined by “and” are separate entries in the source; they are usually repeats but may differ in a detail not shown here. Equal values may be shown once.

The compounds below were run on wild-type HIV-1 strain IIIB (assay: microbe, parasite or virus in culture). Conditions: read-out: EC50.
Format: cell-based

| SMILES | EC50 |
| --- | --- |
| CCOC(=O)C(C)OP(=O)(COc1ccc(CC(NC(=O)OC2COC3OCCC23)C(O)CN(CC(C)C)S(=O)(=O)c2ccc(OC)cc2)cc1)Oc1ccccc1 (stereo not drawn) [drawing 661 R1=OPh R2=Lac-Et] | 50 to 500 nM |
| COc1ccc(S(=O)(=O)N(CC(C)C)C[C@@H](O)[C@H](Cc2ccc(OCP(=O)(Oc3ccccc3)OC(C)C(=O)OCCCN3CCOCC3)cc2)NC(=O)O[C@H]2CO[C@H]3OCC[C@H]32)cc1 (stereo partly drawn) [drawing 658 R1=OPh R2=Lac-PrMor] | > 5000 nM |
| CCOC(=O)[C@H](C)OP(=O)(COc1ccc(C[C@H](NC(=O)O[C@H]2CO[C@H]3OCC[C@H]32)[C@@H](CN(CC(C)C)S(=O)(=O)c2ccc(OC)cc2)OC(=O)[C@H](N)C(C)C)cc1)Oc1ccccc1 (stereo partly drawn) | 50 to 500 nM |
| CCOC(=O)C(C)OP(=O)(COc1ccc(CC(NC(=O)OC2COC3OCCC23)C(O)CN(CC(C)C)S(=O)(=O)c2ccc(CO)cc2)cc1)Oc1ccccc1 (stereo not drawn) | < 50 nM |
| CCOC(=O)C(CC)NP(=O)(COc1ccc(C[C@H](NC(=O)O[C@H]2CO[C@H]3OCC[C@H]32)[C@H](O)CN(CC(C)C)S(=O)(=O)c2ccc(OC)cc2)cc1)Oc1ccccc1 (single isomer, unassigned) [drawing 657 R1=OPh R2=Aba-Et] | < 50 nM and 50 to 500 nM |
| CCCCc1ccc(OP(=O)(COc2ccc(C[C@H](NC(=O)O[C@H]3CO[C@H]4OCC[C@H]43)[C@H](O)CN(CC(C)C)S(=O)(=O)c3ccc(OC)cc3)cc2)O[C@@H](C)C(=O)OCC)cc1 (stereo partly drawn) [drawing 660 R1=OPh—p-n-But R2=(S)Lac-Et] | < 50 nM |
| COc1ccc(S(=O)(=O)N(CC(C)C)C[C@@H](OP(=O)(O)O)[C@H](Cc2ccc(OCP(=O)(Oc3ccccc3)O[C@@H](C)C(=O)OC(C)C)cc2)NC(=O)O[C@H]2CO[C@H]3OCC[C@H]32)cc1 (stereo partly drawn) | < 50 nM |
| CCOC(=O)C(C)OP(=O)(Cc1ccc(N(C)CC(NC(=O)OC2COC3OCCC23)C(O)CN(CC(C)C)S(=O)(=O)c2ccc(OC)cc2)cc1)Oc1ccccc1 (stereo not drawn) | < 50 nM |
| CCCCCCCCc1ccc(OP(=O)(COc2ccc(C[C@H](NC(=O)O[C@H]3CO[C@H]4OCC[C@H]43)[C@H](O)CN(CC(C)C)S(=O)(=O)c3ccc(OC)cc3)cc2)O[C@@H](C)C(=O)OCC)cc1 (stereo partly drawn) [drawing 660 R1=OPh—p-n-Oct R2=(S)Lac-Et] | 50 to 500 nM |
| COc1ccc(S(=O)(=O)N(CC(C)C)CC(O)C(Cc2ccc(OCP(=O)(O)OCc3ccccc3)cc2)NC(=O)OC2COC3OCCC23)cc1 (stereo not drawn) [drawing 651 R1=OH R2=OBn] | 500 to 5000 nM |
| COc1ccc(S(=O)(=O)N(CC(C)C)C[C@@H](O)[C@H](Cc2ccc(OCP(=O)(Oc3ccccc3)Oc3ccccc3)cc2)NC(=O)O[C@H]2CO[C@H]3OCC[C@H]32)cc1 [drawing 651 R1=OPh R2=OPh] | < 50 nM |
| CCOP(=O)(O)COc1ccc(CC(NC(=O)OC2COC3OCCC23)C(O)CN(CC(C)C)S(=O)(=O)c2ccc(OC)cc2)cc1 (stereo not drawn) [drawing 651 R1=OH R2=OEt] | 50 to 500 nM |
| CC(C)CN(C[C@@H](O)[C@H](Cc1ccc(OCP(=O)(OCc2ccccc2)OCc2ccccc2)cc1)NC(=O)O[C@H]1CO[C@H]2OCC[C@H]21)S(=O)(=O)c1ccc(C(F)(F)F)cc1 | < 50 nM |
| CCOC(=O)[C@H](C)OP(=O)(COc1ccc(C[C@H](NC(=O)O[C@H]2CO[C@H]3OCC[C@H]32)[C@H](O)CN(CC(C)C)S(=O)(=O)c2ccc(OC)cc2)cc1)ON(C)C (stereo partly drawn) [drawing 660 R1=ONMe2 R2=(S)Lac-Et] | 50 to 500 nM |
| CCOC(=O)[C@H](C)OP(=O)(COc1ccc(C[C@H](NC(=O)O[C@H]2CO[C@H]3OCC[C@H]32)[C@H](O)CN(CC(C)C)S(=O)(=O)c2ccc(OC)cc2)cc1)ON1CCCCC1 (stereo partly drawn) [drawing 660 R1=OPip R2=(S)Lac-Et] | 500 to 5000 nM |
| CCOP(=O)(COc1ccc(C[C@H](NC(=O)O[C@H]2CO[C@H]3OCC[C@H]32)[C@H](O)CN(CC(C)C)S(=O)(=O)c2ccc([N+](=O)[O-])cc2)cc1)OCC | < 50 nM |
| CCOC(=O)C(C)OP(=O)(CCN1CC=C(CC(NC(=O)OC2COC3OCCC23)C(O)CN(CC(C)C)S(=O)(=O)c2ccc(OC)cc2)CC1)Oc1ccccc1 (stereo not drawn) | > 5000 nM |
| CCOC(=O)C(C)OP(=O)(COc1ccc(CC(NC(=O)OC2COC3OCCC23)C(O)CN(CC(C)C)S(=O)(=O)c2ccc(CN3CCOCC3)cc2)cc1)Oc1ccccc1 (stereo not drawn) | 50 to 500 nM |
| COC(=O)C(C)OP(=O)(COc1ccc(C[C@H](NC(=O)O[C@H]2CO[C@H]3OCC[C@H]32)[C@H](O)CN(CC(C)C)S(=O)(=O)c2ccc(OC)cc2)cc1)Oc1ccccc1 (stereo partly drawn) [drawing 658 R1=OPh R2=Lac-Me] | 50 to 500 nM |
| COc1ccc(S(=O)(=O)N(CC(C)C)C[C@@H](O)[C@H](Cc2ccc(OCP(=O)(Oc3ccccc3)O[C@@H](C)C(=O)OCCCN3CCOCC3)cc2)NC(=O)O[C@H]2CO[C@H]3OCC[C@H]32)cc1 (stereo partly drawn) [drawing 659 R1=OPh R2=(S)Lac-PrMor] | > 5000 nM |
| COc1ccc(S(=O)(=O)N(CC(C)C)C[C@@H](O)[C@H](Cc2ccc(OCP(=O)(O)NC(C)C(=O)O)cc2)NC(=O)O[C@H]2CO[C@H]3OCC[C@H]32)cc1 (stereo partly drawn) [drawing 657 R1=OH R2=Ala-OH] | > 5000 nM |
| CCCCOC(=O)C(C)NP(=O)(O)COc1ccc(C[C@H](NC(=O)O[C@H]2CO[C@H]3OCC[C@H]32)[C@H](O)CN(CC(C)C)S(=O)(=O)c2ccc(OC)cc2)cc1 (stereo partly drawn) [drawing 657 R1=OH R2=Ala-Bu] | > 5000 nM |
| CCOC(=O)C(C)OP(=O)(COc1ccc(CC(NC(=O)OC2COC3OCCC23)C(O)CN(CC(C)C)S(=O)(=O)c2ccc(C=O)cc2)cc1)Oc1ccccc1 (stereo not drawn) | < 50 nM |
| CCOC(=O)C(C)OP(=O)(COc1ccc(CC(NC(=O)OC2COC3OCCC23)C(O)CN(CC(C)C)S(=O)(=O)c2ccc(OC)cc2)cc1)OCC(F)(F)F (stereo not drawn) [drawing 658 R1=OCH2CF3 R2=Lac-Et] | 50 to 500 nM |
| CCOC(=O)C(C)NP(=O)(COc1ccc(C[C@H](NC(=O)O[C@H]2CO[C@H]3OCC[C@H]32)[C@H](O)CN(CC(C)C)S(=O)(=O)c2ccc(OC)cc2)cc1)OCc1ccccc1 (stereo partly drawn) [drawing 657 R1=OBn R2=Ala-Et] | < 50 nM |
| COc1ccc(S(=O)(=O)N(CC(C)C)C[C@@H](O)[C@H](Cc2ccc(OCP(=O)(Oc3ccccc3)O[C@@H](C)C(=O)OCCN3CCOCC3)cc2)NC(=O)O[C@H]2CO[C@H]3OCC[C@H]32)cc1 (stereo partly drawn) [drawing 659 R1=OPh R2=(S)Lac-EtMor] | > 5000 nM |
| COc1ccc(S(=O)(=O)N(CC(C)C)CC(O)C(CC2=CCN(CCP(=O)(O)OC(C)C(=O)O)CC2)NC(=O)OC2COC3OCCC23)cc1 (stereo not drawn) | > 5000 nM |

What follows are compounds tested on mutant HIV-1 with I84V/L90M mutations in the protease gene (assay: not given). Conditions: I84V/L90M mutant.
Format: cell-based

| SMILES | I84V/L90M fold change |
| --- | --- |
| COc1ccc(S(=O)(=O)N(CC(C)C)C[C@@H](O)[C@H](Cc2ccc(OCP(=O)(Oc3ccccc3)Oc3ccccc3)cc2)NC(=O)OC2CCOC2)cc1 (stereo partly drawn) [OMe, phenol] | + (>3 to ≦10) |
| CC(C)CN(CC(O)C(Cc1ccccc1)NC(=O)OC1COC2OCCC12)S(=O)(=O)c1cccc(O)c1 (stereo not drawn) | + (>3 to ≦10) |
| CC(C)CN(CC(O)C(Cc1ccccc1)NC(=O)OC1COC2OCCC12)S(=O)(=O)c1cccc(OCP(=O)(O)O)c1 (stereo not drawn) | + (>3 to ≦10) |
| COc1ccc(S(=O)(=O)N(CC(C)C)C[C@@H](O)[C@H](Cc2ccc(OCP(=O)(O)O)cc2)NC(=O)OC2CCOC2)cc1 (stereo partly drawn) [OMe, OH] | +++ (>30) |

Same assay, conditions: fold difference in EC50, mutant vs. wild type

| SMILES | I84V/L90M fold change |
| --- | --- |
| CCCCOC(=O)C(CC)NP(=O)(COc1ccc(CC(NC(=O)OC2COC3OCCC23)C(O)CN(CC(C)C)S(=O)(=O)c2ccc(OC)cc2)cc1)NC(CC)C(=O)OCCCC (stereo not drawn) [drawing 655 R1=Aba-Bu R2=Aba-Bu] | + (>3 to ≦10) |
| COc1ccc(S(=O)(=O)N(CC(C)C)CC(O)C(CC2=CCN(CCP(=O)(OCc3ccccc3)OCc3ccccc3)CC2)NC(=O)OC2COC3OCCC23)cc1 (stereo not drawn) | + (>3 to ≦10) |
